According to patent EP4238973A1, “SUBSTITUTED 1,2,4-THIADIAZOLYL ISONICOTINAMIDES, SALTS OR N-OXIDES THEREOF AND THEIR USE AS HERBICIDALLY ACTIVE SUBSTANCES” (Bayer AG, priority 2022, dated 2023):

Assays:
Format in all cases: in vivo
Amaranthus retroflexus [1] = assay: Herbicidal post-emergence action; conditions: 1280 g/ha, visual assessment after ca. 3 weeks vs untreated controls
Source text: (§1) Seeds of mono- and dicotyledonous weed plants were sown in plastic pots (double sowings with one species of mono- and one species of dicotyledonous weed plants per pot), in sandy loam, covered with soil and grown under controlled growth conditions. 2 to 3 weeks after sowing, the test plants were sprayed in the single-leaf stage. The compounds according to the invention, formulated in the form of wettable powders (WP) or as emulsifiable concentrates (EC), were sprayed onto the green plant parts as an aqueous suspension or as an emulsion, with the addition of 0.5% of an additive, at an application rate of 600 litres of water per hectare (converted). The test plants were placed in the greenhouse for ca. 3 weeks under optimum growth conditions, and then the effect of the preparations is assessed visually in comparison with untreated controls (herbicidal effect in percent (%): 100% effect = plants have died, 0% effect = as control plants).
as §1, with “(EC), are” for “(EC), were”, “controls (herbicidaleffectinpercent(%):100%effect=plantshavedied,0%effect=ascontrolplants). [formula]” for “controls (herbicidal effect in percent (%): 100% effect = plants have died, 0% effect = as control plants).”

Veronica persica [2] = assay: Herbicidal post-emergence action; conditions: visual assessment after ca. 3 weeks vs untreated controls
Source text: as §1
as §1, with “(EC), are” for “(EC), were”, “controls (herbicidaleffectinpercent(%):100%effect=plantshavedied,0%effect=ascontrolplants). [formula]” for “controls (herbicidal effect in percent (%): 100% effect = plants have died, 0% effect = as control plants).”

Digitaria sanguinalis [3] = assay: Herbicidal post-emergence action; conditions: visual assessment after ca. 3 weeks vs untreated controls
Source text: as §1
as §1, with “(EC), are” for “(EC), were”, “controls (herbicidaleffectinpercent(%):100%effect=plantshavedied,0%effect=ascontrolplants). [formula]” for “controls (herbicidal effect in percent (%): 100% effect = plants have died, 0% effect = as control plants).”

Stellaria media [4] = assay: Herbicidal post-emergence action; conditions: visual assessment after ca. 3 weeks vs untreated controls
Source text: as §1
as §1, with “(EC), are” for “(EC), were”, “controls (herbicidaleffectinpercent(%):100%effect=plantshavedied,0%effect=ascontrolplants). [formula]” for “controls (herbicidal effect in percent (%): 100% effect = plants have died, 0% effect = as control plants).”

Kochia scoparia [5] = assay: Herbicidal post-emergence action; conditions: 1280 g/ha, visual assessment after ca. 3 weeks vs untreated controls
Source text: as §1
as §1, with “(EC), are” for “(EC), were”, “controls (herbicidaleffectinpercent(%):100%effect=plantshavedied,0%effect=ascontrolplants). [formula]” for “controls (herbicidal effect in percent (%): 100% effect = plants have died, 0% effect = as control plants).”

Lolium rigidum [6] = assay: Herbicidal post-emergence action; conditions: 1280 g/ha, visual assessment after ca. 3 weeks vs untreated controls
Source text: as §1
as §1, with “(EC), are” for “(EC), were”, “controls (herbicidaleffectinpercent(%):100%effect=plantshavedied,0%effect=ascontrolplants). [formula]” for “controls (herbicidal effect in percent (%): 100% effect = plants have died, 0% effect = as control plants).”

Matricaria inodora [7] = assay: Herbicidal post-emergence action; conditions: visual assessment after ca. 3 weeks vs untreated controls
Source text: as §1
as §1, with “(EC), are” for “(EC), were”, “controls (herbicidaleffectinpercent(%):100%effect=plantshavedied,0%effect=ascontrolplants). [formula]” for “controls (herbicidal effect in percent (%): 100% effect = plants have died, 0% effect = as control plants).”

Setaria viridis [8] = assay: Herbicidal post-emergence action; conditions: visual assessment after ca. 3 weeks vs untreated controls
Source text: as §1
as §1, with “(EC), are” for “(EC), were”, “controls (herbicidaleffectinpercent(%):100%effect=plantshavedied,0%effect=ascontrolplants). [formula]” for “controls (herbicidal effect in percent (%): 100% effect = plants have died, 0% effect = as control plants).”

Poa annua [9] = assay: Herbicidal post-emergence action; conditions: visual assessment after ca. 3 weeks vs untreated controls
Source text: as §1
as §1, with “(EC), are” for “(EC), were”, “controls (herbicidaleffectinpercent(%):100%effect=plantshavedied,0%effect=ascontrolplants). [formula]” for “controls (herbicidal effect in percent (%): 100% effect = plants have died, 0% effect = as control plants).”

Alopecurus myosuroides = assay: Herbicidal post-emergence action; conditions: 1280 g/ha, visual assessment after ca. 3 weeks vs untreated controls
Source text: as §1
as §1, with “(EC), are” for “(EC), were”, “controls (herbicidaleffectinpercent(%):100%effect=plantshavedied,0%effect=ascontrolplants). [formula]” for “controls (herbicidal effect in percent (%): 100% effect = plants have died, 0% effect = as control plants).”

Amaranthus retroflexus [10] = assay: Herbicidal pre-emergence action; conditions: 1280 g/ha, visual grading after ca. 3 weeks vs untreated controls
Source text: (§2) Seeds of mono- and dicotyledonous weed plants were sown in plastic pots (double sowings with one species of mono- and one species of dicotyledonous weed plants per pot), in sandy loam, and covered with soil. The compounds according to the invention, formulated in the form of wettable powders (WP) or as emulsifiable concentrates (EC), were applied to the surface of the covering soil as an aqueous suspension or as an emulsion, with the addition of 0.5% of an additive, at an application rate of 600 litres of water per hectare (converted). Following treatment, the pots were placed in a greenhouse and kept under optimum growth conditions for the test plants. The visual grading of the damage to the test plants is carried out after ca. 3 weeks in comparison to untreated controls (herbicidal effect in percent (%): 100% effect = plants have died, 0% effect = as control plants). Seeds of mono- and dicotyledonous weed plants were sown in plastic pots (double sowings with one species of mono- and one species of dicotyledonous weed plants per pot), in sandy loam, and covered with soil. The compounds according to the invention, formulated in the form of wettable powders (WP) or as emulsifiable concentrates (EC), were applied to the surface of the covering soil as an aqueous suspension or as an emulsion, with the addition of 0.5% of an additive, at an application rate of 600 litres of water per hectare (converted). Following treatment, the pots were placed in a greenhouse and kept under optimum growth conditions for the test plants. The visual grading of the damage to the test plants is carried out after ca. 3 weeks in comparison to untreated controls (herbicidal effect in percent (%): 100% effect = plants have died, 0% effect = as control plants).

Veronica persica [11] = assay: Herbicidal pre-emergence action; conditions: 1280 g/ha, visual grading after ca. 3 weeks vs untreated controls
Source text: as §2

Digitaria sanguinalis [12] = assay: Herbicidal pre-emergence action; conditions: 1280 g/ha, visual grading after ca. 3 weeks vs untreated controls
Source text: as §2

Stellaria media [13] = assay: Herbicidal pre-emergence action; conditions: visual grading after ca. 3 weeks vs untreated controls
Source text: as §2

Kochia scoparia [14] = assay: Herbicidal pre-emergence action; conditions: 1280 g/ha, visual grading after ca. 3 weeks vs untreated controls
Source text: as §2

Lolium rigidum [15] = assay: Herbicidal pre-emergence action; conditions: visual grading after ca. 3 weeks vs untreated controls
Source text: as §2

Matricaria inodora [16] = assay: Herbicidal pre-emergence action; conditions: 1280 g/ha, visual grading after ca. 3 weeks vs untreated controls
Source text: as §2

Setaria viridis [17] = assay: Herbicidal pre-emergence action; conditions: 1280 g/ha, visual grading after ca. 3 weeks vs untreated controls
Source text: as §2

Poa annua [18] = assay: Herbicidal pre-emergence action; conditions: visual grading after ca. 3 weeks vs untreated controls
Source text: as §2

Abutilon theophrasti = assay: Herbicidal post-emergence action; conditions: 1280 g/ha, visual assessment after ca. 3 weeks vs untreated controls
Source text: as §1
as §1, with “(EC), are” for “(EC), were”, “controls (herbicidaleffectinpercent(%):100%effect=plantshavedied,0%effect=ascontrolplants). [formula]” for “controls (herbicidal effect in percent (%): 100% effect = plants have died, 0% effect = as control plants).”

Row | SMILES | herbicidal effect in percent (%), AMARE (Amaranthus retroflexus [1]) [%] | herbicidal effect in percent (%), VERPE (Veronica persica [2]; 1280 g/ha) [%] | herbicidal effect in percent (%), STEME (Stellaria media [4]; 1280 g/ha) [%] | herbicidal effect in percent (%), KCHSC (Kochia scoparia [5]) [%] | herbicidal effect in percent (%), MATIN (Matricaria inodora [7]; 1280 g/ha) [%] | herbicidal effect in percent (%), SETVI (Setaria viridis [8]; 1280 g/ha) [%] | herbicidal effect in percent (%), POAAN (Poa annua [9]; 1280 g/ha) [%] | herbicidal effect in percent (%), ALOMY (Alopecurus myosuroides) [%] | herbicidal effect in percent (%), STEME (Stellaria media [13]; 1280 g/ha) [%] | herbicidal effect in percent (%), LOLRI (Lolium rigidum [15]; 1280 g/ha) [%] | herbicidal effect in percent (%), MATIN (Matricaria inodora [16]) [%] | herbicidal effect in percent (%), POAAN (Poa annua [18]; 320 g/ha) [%] | herbicidal effect in percent (%), POAAN (Poa annua [18]; 1280 g/ha) [%] | other results
1 | O=C(Nc1ncns1)c1ccncc1I [Example 1-004] | 100 | 100 | 100 | 90 | 100 | 90 | 100 | 100 | 90 | 100 | 90 | 90 | 90 | herbicidal effect in percent (%), VERPE (Veronica persica [2]; 320 g/ha): 100%; herbicidal effect in percent (%), DIGSA (Digitaria sanguinalis [3]; 320 g/ha): 90%; herbicidal effect in percent (%), DIGSA (Digitaria sanguinalis [3]; 1280 g/ha): 100%; herbicidal effect in percent (%), STEME (Stellaria media [4]; 320 g/ha): 100%; herbicidal effect in percent (%), LOLRI (Lolium rigidum [6]): 100%; herbicidal effect in percent (%), SETVI (Setaria viridis [8]; 320 g/ha): 90%; herbicidal effect in percent (%), POAAN (Poa annua [9]; 320 g/ha): 100%; herbicidal effect in percent (%), AMARE (Amaranthus retroflexus [10]): 90%; herbicidal effect in percent (%), VERPE (Veronica persica [11]): 90%; herbicidal effect in percent (%), DIGSA (Digitaria sanguinalis [12]): 90%; herbicidal effect in percent (%), STEME (Stellaria media [13]; 320 g/ha): 90%; herbicidal effect in percent (%), KCHSC (Kochia scoparia [14]): 90%; herbicidal effect in percent (%), SETVI (Setaria viridis [17]): 90%
2 | O=C(Nc1ncns1)c1cc(F)ncc1Br [Example I-027, 5-bromo-2-fluoro-N-(1,2,4-thiadiazol-5-yl)pyridine-4-carboxamide] | 90 | 90 | 90 | 90 | 90 | 90 | 90 | 90 | 100 | 100 | 90 | 90 | 90 | herbicidal effect in percent (%), MATIN (Matricaria inodora [7]; 320 g/ha): 90%; herbicidal effect in percent (%), LOLRI (Lolium rigidum [15]; 320 g/ha): 90%
3 | O=C(Nc1ncns1)c1cc(Cl)ncc1OC(F)(F)F [Example 1-012, 2-chloro-N-(1,2,4-thiadiazol-5-yl)-5-(trifluoromethoxy)pyridine-4-carboxamide] | 100 | 100 | 100 | 90 | 100 | 90 | 90 | – | – | 100 | – | – | 90 | herbicidal effect in percent (%), ABUTH (Abutilon theophrasti): 90%
